A word on the logP: it is the decadic logarithm of the partition coefficient of the neutral form, usually between octanol and water. Higher therefore signals higher lipophilicity.

A short description of this data set: method code SF-HPLC, from DOI: 10.1016/j.ejmech.2006.12.027, PMID: 17306423.
The compound `CC1(C)N(O)C(c2ccc(Cl)cc2Cl)=[N+]([O-])C1(C)C` had a logP of 1.93.

For the compound `CC1(C)N(O)C(c2cccc([N+](=O)[O-])c2)=[N+]([O-])C1(C)C`, the log partition coefficient (logP) was 1.64.

`CC1(C)N(O)C(c2ccccc2O)=[N+]([O-])C1(C)C` had a logP of 1.17.

Compound `COc1ccc(C2=[N+]([O-])C(C)(C)C(C)(C)N2O)cc1` had a logP of 1.62.

`CC1(C)N(O)C(c2ccccc2[N+](=O)[O-])=[N+]([O-])C1(C)C` showed a log partition coefficient (logP) of 0.91.

Take `CC1(C)N(O)C(c2ccc(Br)cc2)=[N+]([O-])C1(C)C`: the logP stood at 2.46.

Take `CC1(C)N(O)C(c2cccnc2)=[N+]([O-])C1(C)C`: the logP came out at 0.51.

In the case of `CC1(C)N(O)C(c2ccccc2F)=[N+]([O-])C1(C)C`, the logP turned out to be 0.82.

`Cc1ccc(C2=[N+]([O-])C(C)(C)C(C)(C)N2O)cc1` displayed a logP of 1.9.

`CC1(C)N(O)C(c2ccc(Cl)cc2)=[N+]([O-])C1(C)C` gave a logP of 2.33.

`CN(C)c1ccc(C2=[N+]([O-])C(C)(C)C(C)(C)N2O)cc1` registered a logP of 2.02.

Compound `CC1(C)N(O)C(c2ccc([N+](=O)[O-])cc2)=[N+]([O-])C1(C)C` displayed a logP of 1.68.

The compound `COc1ccc(C2=[N+]([O-])C(C)(C)C(C)(C)N2O)cc1OC` yielded a logP of 1.15.

For the compound `COc1ccc(C2=[N+]([O-])C(C)(C)C(C)(C)N2O)cc1O`, the logP was found to be 0.92.

The compound `CC1(C)N(O)C(c2ccco2)=[N+]([O-])C1(C)C` registered a logP of 0.62.

For `CC1(C)N(O)C(c2ccc(O)cc2)=[N+]([O-])C1(C)C`, the logP was 0.62.

In turn, `COc1ccc(C2=[N+]([O-])C(C)(C)C(C)(C)N2O)c(OC)c1` gave a lipophilicity (logP) of 0.77.

The compound `CC1(C)N(O)C(c2ccccc2)=[N+]([O-])C1(C)C` yielded a logP of 1.37.

With `CC1(C)N(O)C(c2ccc3c(c2)OCO3)=[N+]([O-])C1(C)C`, the logP is 1.51.

In turn, `COc1cc(C2=[N+]([O-])C(C)(C)C(C)(C)N2O)ccc1O` came in with a logP of 1.14.

`CC1(C)N(O)C(c2ccc(OCC(=O)O)cc2)=[N+]([O-])C1(C)C` displayed a logP of -0.52.

Regarding `CC1(C)N(O)C(c2cccc(O)c2)=[N+]([O-])C1(C)C`, the logP came out at 1.14.

The values are drawn from the SangsterLogP compilation.
